Experimental data taken from PMC6271384, “Synthesis, Cytotoxicity and Mechanistic Evaluation of 4-Oxoquinoline-3-carboxamide Derivatives: Finding New Potential Anticancer Drugs” (Molecules, 2014).

Key:
[1] = Hemolytic assay (cell membrane disruption); format: cell-based, mouse; details: 2% mouse erythrocyte suspension, 1 h, room temperature; read-out: Hemolysis (EC50)
Experimental: (§1) The assay was performed in 96-well plates using a 2% mouse erythrocyte suspension in 0.85% NaCl containing 10 mM CaCl2. Derivatives 10–18, diluted as described above, were tested at 250 µg/mL. After incubation at room temperature for 1 h and centrifugation, the supernatant was removed, and the liberated hemoglobin was measured spectrophotometrically at 540 nm. DMSO was used as a negative control, and Triton X-100 (1%) was used as a positive control.

[2] = system: HCT-116 colon cancer cell line; test: MTT cytotoxicity, colon cancer cell line; format: cell-based; details: 95% confidence interval in brackets
Experimental: (§2) The 4-oxoquinoline-3-carboxamide derivatives (0.3125–20 μM) were tested for cytotoxic activity against three cancer cell lines: HCT-116 (colon), ACP03 (gastric), and MDAMB-231 (breast) (Table 1). Active derivatives were also tested against a normal fibroblast cell line (MRC-5). All cell lines were maintained in DMEM medium supplemented with 10% fetal bovine serum, 2 mM glutamine, 100 U/mL penicillin, and 100 µg/mL streptomycin and were incubated at 37 °C with 5% CO2. Each derivative was dissolved with DMSO to a concentration of 10 mM. The final concentration of DMSO in the culture medium was kept at a constant value below 0.1% (v/v). The derivatives (0.3125–20 µM) were incubated with the cells for 72 h. The negative control contained the same amount of DMSO ([…]). Cell viability was determined by the reduction of the yellow dye 3-(4,5-dimethyl-2-thiazol)-2,5-diphenyl-2H-tetrazolium bromide (MTT) to a blue formazan product as described by Mosmann.
(§3) In the MTT experiments, the results were analyzed according to their means and standard errors in the program GraphPad Prism. Each sample was analyzed in triplicate.

[3] = system: MDAMB231 breast cancer cell line; test: MTT cytotoxicity, breast cancer cell line; format: cell-based; details: 95% confidence interval in brackets
Experimental: as §2, §3

[4] = system: MRC5 normal human fetal lung fibroblast; test: MTT cytotoxicity, normal fibroblast cell line; format: cell-based; details: for IC50: normal human fetal lung fibroblast, MTT, 72 h, 95% confidence interval in brackets; for cytotoxicity in normal fibroblasts: at 20 µM, MRC-5
Experimental: as §2, §3

[5] = system: ACP-03 (ACP03) gastric cancer cell line; test: MTT cytotoxicity, gastric cancer cell line; format: cell-based; details: for IC50: gastric cancer cell line, MTT, 72 h, 95% confidence interval in brackets
Experimental: as §2, §3

mouse erythrocytes = test: Hemolytic assay (cell membrane disruption); format: cell-based; details: result in words
Experimental: as §1

[6] = molecular target: T1, Human topoisomerase IIα (TopoIIα) (Homo sapiens, UniProt P11388); test: DNA relaxation assay (Topoisomerase II Drug Screening Kit); format: biochemical; details: 100 µM compound, 10 U enzyme, 37 °C, 30 min, agarose gel
T1 construct: purchased TopoGEN, Inc. (Columbus, OH, USA)
Experimental: Human topoisomerase IIα (TopoIIα) was obtained from TopoGEN, Inc. (Columbus, OH, USA). Proteinase K from Tritirachium album was obtained from Sigma-Aldrich, Inc. (St. Louis, MO, USA) and was dissolved in DNase free water. A TAE gel electrophoresis buffer was used in this assay.
The inhibitory effects of the derivatives on human TopoIIα were measured using a Eukaryotic Topoisomerase II Drug Screening Kit (TopoGEN, Inc.). All derivatives were dissolved in DMSO immediately prior to testing.
The substances were tested at a fixed concentration of 0.1 mM. […] Supercoiled plasmid DNA (pRYG, 200 ng) was incubated with human TopoIIα (10 U) at 37 °C for 30 min in relaxation buffers in the absence or presence of derivatives (final volume is 20 μL). The order of reagent addition was buffer, test derivative, Topo IIα and finally DNA.
The assay samples were analyzed by electrophoresis on a 1% agarose gel without EtdBr (25 V, 18 h, room temperature) in TAE buffer, followed by staining in 0.5 μg/mL of EtdBr to allow for observation of the DNA bands under UV light.

T1 sequence (P11388 whole entry): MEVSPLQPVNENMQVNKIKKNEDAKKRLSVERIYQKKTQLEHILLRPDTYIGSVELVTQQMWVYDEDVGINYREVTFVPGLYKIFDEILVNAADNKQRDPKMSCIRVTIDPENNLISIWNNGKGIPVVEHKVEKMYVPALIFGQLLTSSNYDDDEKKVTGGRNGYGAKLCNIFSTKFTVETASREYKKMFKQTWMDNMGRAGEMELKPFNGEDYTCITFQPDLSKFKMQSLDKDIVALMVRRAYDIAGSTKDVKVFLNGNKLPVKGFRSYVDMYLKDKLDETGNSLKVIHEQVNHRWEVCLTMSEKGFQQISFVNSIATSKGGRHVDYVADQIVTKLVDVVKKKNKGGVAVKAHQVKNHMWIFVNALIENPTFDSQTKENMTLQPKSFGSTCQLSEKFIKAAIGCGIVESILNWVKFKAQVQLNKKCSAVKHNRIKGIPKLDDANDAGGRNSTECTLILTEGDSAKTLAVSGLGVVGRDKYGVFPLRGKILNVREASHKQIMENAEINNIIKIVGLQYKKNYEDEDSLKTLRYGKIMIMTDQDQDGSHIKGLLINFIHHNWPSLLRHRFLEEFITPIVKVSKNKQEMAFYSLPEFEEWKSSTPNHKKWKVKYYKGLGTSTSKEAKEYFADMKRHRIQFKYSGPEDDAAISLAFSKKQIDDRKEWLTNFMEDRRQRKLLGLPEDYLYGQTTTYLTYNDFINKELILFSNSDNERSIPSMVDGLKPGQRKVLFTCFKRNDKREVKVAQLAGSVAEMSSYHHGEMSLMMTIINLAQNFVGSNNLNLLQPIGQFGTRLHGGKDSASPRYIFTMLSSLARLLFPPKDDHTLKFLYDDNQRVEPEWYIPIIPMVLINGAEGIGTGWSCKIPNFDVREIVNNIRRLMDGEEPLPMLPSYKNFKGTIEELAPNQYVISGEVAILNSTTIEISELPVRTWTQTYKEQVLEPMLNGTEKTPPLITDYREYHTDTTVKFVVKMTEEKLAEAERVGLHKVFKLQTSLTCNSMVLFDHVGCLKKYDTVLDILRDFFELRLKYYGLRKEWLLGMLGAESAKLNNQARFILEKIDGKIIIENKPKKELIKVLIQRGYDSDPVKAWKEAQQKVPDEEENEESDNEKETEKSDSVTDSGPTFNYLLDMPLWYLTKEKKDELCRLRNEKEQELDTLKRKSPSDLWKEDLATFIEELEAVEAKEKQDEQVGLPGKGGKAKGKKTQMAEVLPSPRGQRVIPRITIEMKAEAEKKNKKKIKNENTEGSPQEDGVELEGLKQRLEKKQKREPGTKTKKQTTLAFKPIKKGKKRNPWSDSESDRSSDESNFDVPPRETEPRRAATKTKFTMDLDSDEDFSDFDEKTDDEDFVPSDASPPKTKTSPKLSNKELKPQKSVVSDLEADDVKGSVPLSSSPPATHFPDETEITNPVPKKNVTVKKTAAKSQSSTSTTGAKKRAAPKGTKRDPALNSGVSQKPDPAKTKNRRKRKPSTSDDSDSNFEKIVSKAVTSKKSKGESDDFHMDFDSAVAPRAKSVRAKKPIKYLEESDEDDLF

COc1cccc2c1C(=O)c1c(O)c3c(c(O)c1C2=O)C[C@@](O)(C(=O)CO)C[C@@H]3O[C@H]1C[C@H](N)[C@H](O)[C@H](C)O1 [DOXORUBICIN, doxorubicin, reference compound]
EC50 at 1 h [1]: > 200 µg/mL | IC50 ([2]; Homo sapiens, HCT-116, 72 h): 0.1 µM | IC50 ([3]; Homo sapiens, MDA-MB-231, 72 h): 0.43 µM | IC50 ([4]; MRC5): 0.2 µM | selectivity against cancer cells versus normal cells ([5]; ACP-03 versus MRC-5): no selectivity | IC50 [5]: 0.274 µM

O=C(NCc1ccc(Cl)cc1)c1c[nH]c2ccccc2c1=O [Derivative 10a, 4-Oxo-N'-(4-chlorobenzyl)-1,4-dihydroquinoline-3-carboxamide]
IC50 ([2]; 72 h): > 10 µM | IC50 ([3]; 72 h): > 10 µM

O=C(NCc1ccc(Cl)cc1)c1c[nH]c2ccc(Cl)cc2c1=O [Derivative 10b, 6-Chloro-4-oxo-N'-(4-chlorobenzyl)-1,4-dihydroquinoline-3-carboxamide]
IC50 ([2]; 72 h): > 10 µM | IC50 ([3]; 72 h): > 10 µM

O=C(NCc1ccc(Cl)cc1)c1c[nH]c2cc(Cl)ccc2c1=O [Derivative 10c, 7-Chloro-4-oxo-N'-(4-chlorobenzyl)-1,4-dihydroquinoline-3-carboxamide]
IC50 ([2]; 72 h): > 10 µM | IC50 ([3]; 72 h): > 10 µM

O=C(NC1CCCCC1)c1c[nH]c2ccccc2c1=O [Derivative 11a, 4-Oxo-N'-cyclohexyl-1,4-dihydroquinoline-3-carboxamide]
IC50 ([2]; 72 h): > 10 µM | IC50 ([3]; 72 h): > 10 µM

O=C(NC1CCCCC1)c1c[nH]c2ccc(Cl)cc2c1=O [Derivative 11b, 6-Chloro-4-oxo-N'-cyclohexyl-1,4-dihydroquinoline-3-carboxamide]
IC50 ([2]; 72 h): > 10 µM | IC50 ([3]; 72 h): > 10 µM

O=C(NC1CCCCC1)c1c[nH]c2cc(Cl)ccc2c1=O [Derivative 11c, 7-Chloro-4-oxo-N'-cyclohexyl-1,4-dihydroquinoline-3-carboxamide]
IC50 ([2]; 72 h): > 10 µM | IC50 ([3]; 72 h): > 10 µM

O=C(Nc1ccc(Cl)cc1)c1c[nH]c2ccccc2c1=O [Derivative 12a, 4-oxo-N'-(4-Chlorophenyl)-1,4-dihydroquinoline-3-carboxamide]
IC50 ([2]; 72 h): > 10 µM | IC50 ([3]; 72 h): > 10 µM

O=C(Nc1ccc(Cl)cc1)c1c[nH]c2ccc(Cl)cc2c1=O [Derivative 12b, 6-Chloro-4-oxo-N'-(4-chlorophenyl)-1,4-dihydroquinoline-3-carboxamide]
IC50 ([2]; 72 h): > 10 µM | IC50 ([3]; 72 h): > 10 µM

O=C(Nc1ccc(F)cc1)c1c[nH]c2ccccc2c1=O [Derivative 13a, 4-oxo-N'-(4-Fluorophenyl)-1,4-dihydroquinoline-3-carboxamide]
IC50 ([2]; 72 h): > 10 µM | IC50 ([3]; 72 h): > 10 µM

O=C(Nc1ccc(F)cc1)c1c[nH]c2cc(Cl)ccc2c1=O [Derivative 13b, 7-Chloro-4-oxo-N'-(4-fluorphenyl)-1,4-dihydroquinoline-3-carboxamide]
IC50 ([2]; 72 h): > 10 µM | IC50 ([3]; 72 h): > 10 µM

COc1ccc(NC(=O)c2c[nH]c3ccccc3c2=O)cc1 [Derivative 14a, 4-oxo-N'-(4-Methoxyphenyl)-1,4-dihydroquinoline-3-carboxamide]
IC50 ([2]; 72 h): > 10 µM | IC50 ([3]; 72 h): > 10 µM

COc1ccc(NC(=O)c2c[nH]c3cc(Cl)ccc3c2=O)cc1 [Derivative 14b, 7-Chloro-4-oxo-N'-(4-methoxyphenyl)-1,4-dihydroquinoline-3-carboxamide]
IC50 ([2]; 72 h): > 10 µM | IC50 ([3]; 72 h): > 10 µM

O=C(Nc1ccccc1)c1c[nH]c2ccccc2c1=O [Derivative 15a, 4-oxo-N'-Phenyl-1,4-dihydroquinoline-3-carboxamide]
IC50 ([2]; 72 h): > 10 µM | IC50 ([3]; 72 h): > 10 µM

O=C(Nc1ccccc1)c1c[nH]c2ccc(Cl)cc2c1=O [Derivative 15b, 6-Chloro-4-oxo-N'-phenyl-1,4-dihydroquinoline-3-carboxamide]
IC50 ([2]; 72 h): > 10 µM | IC50 ([3]; 72 h): > 10 µM

O=C(Nc1ccccc1)c1c[nH]c2cc(Cl)ccc2c1=O [Derivative 15c, 7-Chloro-4-oxo-N'-phenyl-1,4-dihydroquinoline-3-carboxamide]
IC50 ([2]; 72 h): > 10 µM | IC50 ([3]; 72 h): > 10 µM

Cc1ccc(NC(=O)c2c[nH]c3ccccc3c2=O)cc1 [Derivative 16a, 4-Oxo-N'-(p-tolyl)-1,4-dihydroquinoline-3-carboxamide]
IC50 ([2]; 72 h): > 10 µM | IC50 ([3]; 72 h): > 10 µM

Cc1ccc(NC(=O)c2c[nH]c3ccc(Cl)cc3c2=O)cc1 [Derivative 16b, 6-Chloro-4-oxo-N'-(p-tolyl)-1,4-dihydroquinoline-3-carboxamide]
hemolytical activity against blood cells (mouse erythrocytes): no hemolytical activity | IC50 ([2]; 72 h): > 10 µM | IC50 ([3]; 72 h): > 10 µM | cytotoxicity in normal fibroblasts [4]: did not display cytotoxicity | IC50 [4]: > 20 µM | IC50 [5]: 1.92 µM | inhibition of supercoiled DNA (pRYG) relaxation by topoisomerase II [6]: only the SC band is observed, which indicates topoisomerase inhibition

Cc1ccc(NC(=O)c2c[nH]c3cc(Cl)ccc3c2=O)cc1 [Derivative 16c, 7-Chloro-4-oxo-N'-(p-tolyl)-1,4-dihydroquinoline-3-carboxamide]
IC50 ([2]; 72 h): > 10 µM | IC50 ([3]; 72 h): > 10 µM

O=C(Nc1cc(Cl)ccc1Cl)c1c[nH]c2ccccc2c1=O [Derivative 17a, 4-Oxo-N'-(2,5-dichlorophenyl)-1,4-dihydroquinoline-3-carboxamide]
IC50 ([2]; 72 h): > 10 µM | IC50 ([3]; 72 h): > 10 µM

O=C(Nc1cc(Cl)ccc1Cl)c1c[nH]c2ccc(Cl)cc2c1=O [Derivative 17b, 6-Chloro-4-oxo-N'-(2,5-dichlorophenyl)-1,4-dihydroquinoline-3-carboxamide]
hemolytical activity against blood cells (mouse erythrocytes): no hemolytical activity | IC50 ([2]; 72 h): > 10 µM | IC50 ([3]; 72 h): > 10 µM | cytotoxicity in normal fibroblasts [4]: did not display cytotoxicity | IC50 [4]: > 20 µM | IC50 [5]: 5.18 µM | inhibition of supercoiled DNA (pRYG) relaxation by topoisomerase II [6]: only the SC band is observed, which indicates topoisomerase inhibition

O=C(Nc1cc(Cl)ccc1Cl)c1c[nH]c2cc(Cl)ccc2c1=O [Derivative 17c, 7-Chloro-4-oxo-N'-(2,5-dichlorophenyl)-1,4-dihydroquinoline-3-carboxamide]
IC50 ([2]; 72 h): > 10 µM | IC50 ([3]; 72 h): > 10 µM

COc1ccc(OC)c(NC(=O)c2c[nH]c3ccccc3c2=O)c1 [Derivative 18a, 4-Oxo-N'-(2,5-dimethoxyphenyl)-1,4-dihydroquinoline-3-carboxamide]
IC50 ([2]; 72 h): > 10 µM | IC50 ([3]; 72 h): > 10 µM

COc1ccc(OC)c(NC(=O)c2c[nH]c3ccc(Cl)cc3c2=O)c1 [Derivative 18b, 6-Chloro-4-oxo-N'-(2,5-dimethoxyphenyl)-1,4-dihydroquinoline-3-carboxamide]
IC50 ([2]; 72 h): > 10 µM | IC50 ([3]; 72 h): > 10 µM

COc1ccc(OC)c(NC(=O)c2c[nH]c3cc(Cl)ccc3c2=O)c1 [Derivative 18c, 7-Chloro-4-oxo-N'-(2,5-dimethoxyphenyl)-1,4-dihydroquinoline-3-carboxamide]
IC50 ([2]; 72 h): > 10 µM | IC50 ([3]; 72 h): > 10 µM
